In US10221129B2, “Inhibitors of human immunodeficiency virus replication” (ViiV HEALTHCARE UK (NO.5) LIMITED, priority 2015, dated 2019):
Read-outs that look alike come from different tables or passages of the source.

Assays:
[1] = tested on: recombinant NL4-3 virus (nef section replaced with Renilla luciferase gene) in MT-2 cells; assay: HIV cell culture assay (antiviral activity, luciferase readout); assay type: cell-based
Experimental: HIV cell culture assay—MT-2 cells, 293T cells and the proviral DNA clone of NL4-3 virus were obtained from the NIH AIDS Research and Reference Reagent Program. MT-2 cells were propagated in RPMI 1640 media supplemented with 10% heat inactivated fetal bovine serum (FBS), 100 jag/ml penicillin G and up to 100 units/mL streptomycin. The 293T cells were propagated in DMEM media supplemented with 10% heat inactivated FBS, 100 μg/mL penicillin G and 100 μg/mL streptomycin. A recombinant NL4-3 proviral clone, in which a section of the nef gene was replaced with the Renilla luciferase gene, was used to make the reference virus used in these studies. The recombinant virus was prepared through transfection of the recombinant NL4-3 proviral clone into 293T cells using Transit-293 Transfection Reagent from Mirus Bio LLC (Madison, Wis.). Supernatant was harvested after 2-3 days and the amount of virus present was titered in MT-2 cells using luciferase enzyme activity as a marker by measuring luciferase enzyme activity. Luciferase was quantitated using the EnduRen Live Cell Substrate from Promega (Madison, Wis.). Antiviral activities of compounds toward the recombinant virus were quantified by measuring luciferase activity in MT-2 cells infected for 4-5 days with the recombinant virus in the presence of serial dilutions of the compound.
(Johnson V A, Byington R T. Infectivity Assay. In Techniques in HIV Research. ed. Aldovini A, Walker B D. 71-76. New York: Stockton Press. 1990).

[2] = Compound cytotoxicity, XTT-based colorimetric assay; assay type: cell-based; conditions: human, uninfected MT2 cells, day 4, XTT
Experimental: Compound cytotoxicity and the corresponding CC50 values were determined using the same protocol as described in the antiviral assay except that uninfected cells were used. Cytotoxicity was assessed on day 4 in uninfected MT2 cells by using a XTT (2,3-bis[2-Methoxy-4-nitro-5-sulfophenyl]-2H-tetrazolium-5-carboxyanilide inner salt)-based colorimetric assay (Sigma-Aldrich, St Louis, Mo.).

[3] = Renilla, NL43, MT-2 cells infected for 4-5 days with recombinant NL4-3 Renilla luciferase virus

| Compound | EC50 [1, 3] | CC50 at 4 days [2] | EC50 ([1]; MT-2 cells infected for 4-5 days with recombinant NL4-3 Renilla luciferase virus, read-out: EC50) |
| --- | --- | --- | --- |
| Cc1ccc(N(C)C(=O)[C@H](Cc2cc(F)cc(F)c2)NC(=O)NS(=O)(=O)N2CCc3cncnc32)cc1F [BB-14] | 0.02 µM | 93.1 µM |  |
| Cc1cc(N(C)C(=O)[C@H](Cc2cc(F)cc(F)c2)NC(=O)NS(=O)(=O)N2CCc3cccnc32)ccc1C#N [BB-15] | 0.46 µM | > 100 µM |  |
| Cc1cc(N(C)C(=O)[C@H](Cc2cc(F)cc(F)c2)NC(=O)NS(=O)(=O)N2CCc3cccnc32)ccc1Cl [BB-16] | 0.03 µM | 56.3 µM |  |
| Cc1cc(N(C)C(=O)[C@H](Cc2cc(F)cc(F)c2)NC(=O)NS(=O)(=O)N2CCc3cccnc32)ccc1F [BB-17] | 0.07 µM | 91.2 µM |  |
| CC(C)c1ccc(N(C)C(=O)[C@H](Cc2cc(F)cc(F)c2)NC(=O)NS(=O)(=O)N2CCc3cccnc32)cn1 [BB-18] | 0.01 µM | > 100 µM |  |
| COc1cncc(N(C)C(=O)[C@H](Cc2cc(F)cc(F)c2)NC(=O)NS(=O)(=O)N2CCc3cccnc32)c1 [BB-19] | 3.27 µM | > 100 µM |  |
| Cc1ccc(N(C)C(=O)[C@H](Cc2cc(F)cc(F)c2)NC(=O)NS(=O)(=O)N2CCc3cccnc32)cc1Cl [BB-20] | 0.06 µM | 60.7 µM |  |
| COc1ccc(N(C)C(=O)[C@H](Cc2cc(F)cc(F)c2)NC(=O)NS(=O)(=O)N2CCC[C@H]2C(=O)N(C)C)cc1 [BB-21] | 0.75 µM | > 100 µM |  |
| CN(C)C(=O)[C@@H]1CCCN1S(=O)(=O)NC(=O)N[C@@H](Cc1cc(F)cc(F)c1)C(=O)N(C)c1ccc2scnc2c1 [BB-22] | 0.38 µM | > 100 µM |  |
| CN(C(=O)[C@H](Cc1cc(F)cc(F)c1)NC(=O)NS(=O)(=O)N1CCc2cccnc21)c1ccc(Cl)c(C#N)c1 [BB-23] | 0.28 µM | > 100 µM |  |
| CN(C(=O)[C@H](Cc1cc(F)cc(F)c1)NC(=O)NS(=O)(=O)N1CCc2cccnc21)c1ccc(CC(F)F)cc1 [BB-24] | 0.01 µM | > 33.3 µM |  |
| CN(C(=O)[C@H](Cc1cc(F)cc(F)c1)NC(=O)N(C)S(=O)(=O)N1CCc2cccnc21)c1ccc2scnc2c1 [BB-25] | 0.53 µM | > 33.3 µM |  |
| CN(C)C(=O)[C@H]1CCCN1S(=O)(=O)NC(=O)N[C@@H](Cc1cc(F)cc(F)c1)C(=O)N(C)c1ccc2scnc2c1 [BB-26] | 0.31 µM | > 100 µM |  |
| COc1ccc(N(C)C(=O)[C@H](Cc2cc(F)cc(F)c2)NC(=O)NS(=O)(=O)N2CCC[C@@H]2C(=O)N(C)C)cc1 [BB-27] | 0.97 µM | > 100 µM |  |
| CN(C(=O)[C@H](Cc1cc(F)cc(F)c1)NC(=O)NS(=O)(=O)N1CCc2cccnc21)c1ccc2cncnc2c1 [BB-30] | 0.26 µM | > 100 µM |  |
| COc1ccc(N(C)C(=O)[C@H](Cc2cc(F)cc(F)c2)NC(=O)NS(=O)(=O)N2CCc3cccnc32)cc1 [BB-31] | 0.01 µM | > 33.3 µM |  |
| COc1ccc(N(C(=O)[C@H](Cc2cc(F)cc(F)c2)NC(=O)NS(=O)(=O)N2CCc3cccnc32)C2CC2)cc1 [BB-32] | 0.05 µM | 62.6 µM |  |
| CN(C(=O)[C@H](Cc1cc(F)cc(F)c1)NC(=O)NS(=O)(=O)N1CCCC1=O)c1ccc2scnc2c1 [BB-33] | 0.45 µM | > 100 µM |  |
| O=C(N[C@@H](Cc1cc(F)cc(F)c1)C(=O)N(CCOCc1ccccc1)c1ccc2scnc2c1)NS(=O)(=O)N1CCc2cccnc21 [BB-34] | 0.04 µM | 70.6 µM |  |
| CN(C(=O)[C@H](Cc1cc(F)cc(F)c1)NC(=O)NS(=O)(=O)N1CCc2cccnc21)c1ccc(OC(F)F)cc1 [BB-35] | 0.01 µM | 97.2 µM |  |
| CCN(CC)S(=O)(=O)NC(=O)N[C@@H](Cc1cc(F)cc(F)c1)C(=O)N(C)c1ccc(OC(F)F)cc1 [BB-36] | 0.16 µM | > 100 µM |  |
| CN(C(=O)[C@H](Cc1cc(F)cc(F)c1)NC(=O)NS(=O)(=O)N(C)C)c1ccc(OC(F)F)cc1 [BB-37] | 0.1 µM | > 100 µM |  |
| COc1ccc(N(C)C(=O)[C@H](Cc2ccccc2)NC(=O)NS(=O)(=O)N2CCc3c(Cl)cccc32)cc1 [CA-1] | 0.25 µM | 21.4 µM |  |
| COc1ccc(N(C)C(=O)[C@H](Cc2ccccc2)NC(=O)NS(=O)(=O)NCc2n[nH]c3ccccc23)cc1 [JB-67] |  |  | 0.18 µM |
